According to ChEMBL document CHEMBL3351686, “Facile and diastereoselective synthesis of 3,2'-spiropyrrolidine-oxindoles derivatives, their molecular docking and antiproliferative activities” (2015):
Converted amounts (≈) assume the structure as drawn.

How the values were obtained:
[1] = test system: Staphylococcus epidermidis; assay: Antibacterial activity against Staphylococcus epidermidis MTCC 3615 assessed as zone of inhibition at 1 mg/disc after 24 hrs by disc diffusion method; assay type: functional
[2] = test system: Staphylococcus aureus; assay: Antibacterial activity against Staphylococcus aureus MTCC 96 assessed as zone of inhibition at 1 mg/disc after 24 hrs by disc diffusion method; assay type: functional
[3] = test system: Proteus vulgaris; assay: Antibacterial activity against Proteus vulgaris MTCC 1771 assessed as zone of inhibition at 1 mg/disc after 24 hrs by disc diffusion method; assay type: functional
[4] = test system: Klebsiella aerogenes; assay: Antibacterial activity against Enterobacter aerogenes MTCC 111 assessed as zone of inhibition at 1 mg/disc after 24 hrs by disc diffusion method; assay type: functional
[5] = test system: Salmonella typhimurium; assay: Antibacterial activity against Salmonella typhimurium MTCC 1251 assessed as zone of inhibition at 1 mg/disc after 24 hrs by disc diffusion method; assay type: functional, Salmonella enterica subsp. enterica serovar Typhimurium
[6] = test system: Candida albicans; assay: Antifungal activity against Candida albicans MTCC 227 assessed as zone of inhibition at 1 mg/disc after 48 hrs by disc diffusion method; assay type: functional
[7] = test system: Staphylococcus aureus; assay: Antibacterial activity against methicillin-resistant Staphylococcus aureus assessed as zone of inhibition at 1 mg/disc after 24 hrs by disc diffusion method; assay type: functional
[8] = test system: Klebsiella pneumoniae; assay: Antibacterial activity against Klebsiella pneumoniae MTCC 109 assessed as zone of inhibition at 1 mg/disc after 24 hrs by disc diffusion method; assay type: functional
[9] = test system: Micrococcus luteus; assay: Antibacterial activity against Micrococcus luteus MTCC 106 assessed as zone of inhibition at 1 mg/disc after 24 hrs by disc diffusion method; assay type: functional
[10] = test system: Staphylococcus aureus; assay: Antibacterial activity against methicillin-resistant Staphylococcus aureus assessed as inhibition of visual growth after 24 hrs; assay type: functional
[11] = test system: Proteus vulgaris; assay: Antibacterial activity against Proteus vulgaris MTCC 1771 assessed as inhibition of visual growth after 24 hrs; assay type: functional; details: MTCC 1771, 24 h
[12] = test system: Klebsiella aerogenes; assay: Antibacterial activity against Enterobacter aerogenes MTCC 111 assessed as inhibition of visual growth after 24 hrs; assay type: functional; details: MTCC 111, 24 h
[13] = test system: Staphylococcus epidermidis; assay: Antibacterial activity against Staphylococcus epidermidis MTCC 3615 assessed as inhibition of visual growth after 24 hrs; assay type: functional; details: MTCC 3615, 24 h
[14] = test system: Malassezia pachydermatis; assay: Antifungal activity against Malassezia pachydermatis assessed as zone of inhibition at 1 mg/disc after 48 hrs by disc diffusion method; assay type: functional
[15] = test system: Malassezia pachydermatis; assay: Antifungal activity against Malassezia pachydermatis assessed as inhibition of visual growth after 48 to 72 hrs; assay type: functional
[16] = test system: Candida albicans; assay: Antifungal activity against Candida albicans MTCC 227 assessed as inhibition of visual growth after 48 to 72 hrs; assay type: functional
[17] = test system: Micrococcus luteus; assay: Antibacterial activity against Micrococcus luteus MTCC 106 assessed as inhibition of visual growth after 24 hrs; assay type: functional; details: MTCC 106, 24 h
[18] = test system: Staphylococcus aureus; assay: Antibacterial activity against Staphylococcus aureus MTCC 96 assessed as inhibition of visual growth after 24 hrs; assay type: functional; details: MTCC 96, 24 h
[19] = test system: Klebsiella pneumoniae; assay: Antibacterial activity against Klebsiella pneumoniae MTCC 109 assessed as inhibition of visual growth after 24 hrs; assay type: functional; details: MTCC 109, 24 h
[20] = test system: Shigella flexneri; assay: Antibacterial activity against Shigella flexneri MTCC 1457 assessed as zone of inhibition at 1 mg/disc after 24 hrs by disc diffusion method; assay type: functional
[21] = test system: Salmonella typhimurium; assay: Antibacterial activity against Salmonella typhimurium MTCC 1251 assessed as inhibition of visual growth after 24 hrs; assay type: functional, Salmonella enterica subsp. enterica serovar Typhimurium; details: Salmonella enterica, MTCC 1251, 24 h
[22] = test system: Shigella flexneri; assay: Antibacterial activity against Shigella flexneri MTCC 1457 assessed as inhibition of visual growth after 24 hrs; assay type: functional; details: MTCC 1457, 24 h

Row | Structure (SMILES) | inhibition zone (IZ) [1] | inhibition zone (IZ) [2] | inhibition zone (IZ) [3] | inhibition zone (IZ) [4] | inhibition zone (IZ) [5] | inhibition zone (IZ) [6] | inhibition zone (IZ) [7] | inhibition zone (IZ) [8] | inhibition zone (IZ) [9] | MIC [10] | MIC [11] | MIC [12] | MIC [13] | inhibition zone (IZ) [14] | MIC [15] | MIC [16] | MIC [17] | MIC [18] | MIC [19] | other results
1 | N#C[C@]1(C(=O)c2c[nH]c3ccccc23)C2CCCN2[C@]2(C(=O)N(Cc3ccccc3)c3ccccc32)[C@@H]1c1cn(-c2ccccc2)nc1-c1ccccc1 (some centres undefined) | 15 mm | 13 mm | 10 mm | 8 mm | 14 mm | 8 mm | 8 mm | 11 mm | 9 mm |  |  |  |  |  |  |  |  |  |  | 
2 | C#CCN1C(=O)[C@]2(c3ccccc31)[C@H](c1cn(-c3ccccc3)nc1-c1ccccc1)[C@@](C#N)(C(=O)c1c[nH]c3ccccc13)CN2C | 10 mm | 9 mm | 8 mm | 10 mm |  | 10 mm | 8 mm | 10 mm | 8 mm | 500 µg/mL (≈ 798 µM) | 500 µg/mL (≈ 798 µM) | 250 µg/mL (≈ 399 µM) | 250 µg/mL (≈ 399 µM) | 8 mm | 500 µg/mL (≈ 798 µM) | 125 µg/mL (≈ 199 µM) | 500 µg/mL (≈ 798 µM) | 500 µg/mL (≈ 798 µM) | 250 µg/mL (≈ 399 µM) | 
3 | CCCCN1C(=O)[C@]2(c3ccccc31)[C@H](c1cn(-c3ccccc3)nc1-c1ccccc1)[C@@](C#N)(C(=O)c1c[nH]c3ccccc13)CN2C | 9 mm |  | 8 mm | 13 mm |  | 9 mm |  | 9 mm | 11 mm |  | 500 µg/mL (≈ 775 µM) | 125 µg/mL (≈ 194 µM) | 500 µg/mL (≈ 775 µM) | 11 mm | 250 µg/mL (≈ 388 µM) | 500 µg/mL (≈ 775 µM) | 250 µg/mL (≈ 388 µM) |  | 500 µg/mL (≈ 775 µM) | 
4 | N#C[C@]1(C(=O)c2c[nH]c3ccccc23)C2CSCN2[C@]2(C(=O)Nc3ccc([N+](=O)[O-])cc32)[C@@H]1c1cn(-c2ccccc2)nc1-c1ccccc1 (some centres undefined) |  |  | 8 mm |  |  |  |  |  |  |  |  |  |  |  |  |  |  |  |  | 
5 | CN1C(=O)[C@]2(c3ccccc31)[C@H](c1cn(-c3ccccc3)nc1-c1ccccc1)[C@@](C#N)(C(=O)c1c[nH]c3ccccc13)CN2C | 8 mm |  | 10 mm | 8 mm |  | 11 mm |  | 8 mm | 10 mm |  | 250 µg/mL (≈ 415 µM) | 500 µg/mL (≈ 830 µM) | 500 µg/mL (≈ 830 µM) | 10 mm | 500 µg/mL (≈ 830 µM) | 250 µg/mL (≈ 415 µM) | 500 µg/mL (≈ 830 µM) |  | 500 µg/mL (≈ 830 µM) | 
6 | CN1C[C@](C#N)(C(=O)c2c[nH]c3ccccc23)[C@@H](c2cn(-c3ccccc3)nc2-c2ccccc2)[C@@]12C(=O)Nc1ccccc12 | 8 mm | 9 mm | 8 mm | 9 mm |  |  | 8 mm | 9 mm | 10 mm | 500 µg/mL (≈ 849 µM) | 500 µg/mL (≈ 849 µM) | 500 µg/mL (≈ 849 µM) | 500 µg/mL (≈ 849 µM) | 9 mm | 500 µg/mL (≈ 849 µM) |  | 250 µg/mL (≈ 425 µM) | 500 µg/mL (≈ 849 µM) | 500 µg/mL (≈ 849 µM) | 
7 | C#CCN1C(=O)[C@]2(c3ccccc31)[C@H](c1cn(-c3ccccc3)nc1-c1ccccc1)[C@@](C#N)(C(=O)c1c[nH]c3ccccc13)C1CSCN12 (some centres undefined) |  |  | 9 mm |  |  |  | 13 mm |  | 8 mm |  |  |  |  |  |  |  |  |  |  | inhibition zone (IZ) [20]: 14 mm
8 | N#C[C@]1(C(=O)c2c[nH]c3ccccc23)C2CSCN2[C@]2(C(=O)N(Cc3ccccc3)c3ccccc32)[C@@H]1c1cn(-c2ccccc2)nc1-c1ccccc1 (some centres undefined) |  |  | 10 mm |  |  |  |  |  |  | 500 µg/mL (≈ 692 µM) | 500 µg/mL (≈ 692 µM) | 250 µg/mL (≈ 346 µM) | 125 µg/mL (≈ 173 µM) |  | 500 µg/mL (≈ 692 µM) | 500 µg/mL (≈ 692 µM) | 250 µg/mL (≈ 346 µM) | 62.5 µg/mL (≈ 86.5 µM) | 250 µg/mL (≈ 346 µM) | MIC [21]: 250 µg/mL (≈ 346 µM); MIC [22]: 500 µg/mL (≈ 692 µM)
9 | CCCCN1C(=O)[C@]2(c3ccccc31)[C@H](c1cn(-c3ccccc3)nc1-c1ccccc1)[C@@](C#N)(C(=O)c1c[nH]c3ccccc13)C1CCCN12 (some centres undefined) | 10 mm | 11 mm | 10 mm | 11 mm | 8 mm |  | 12 mm | 9 mm | 9 mm | 500 µg/mL (≈ 745 µM) | 250 µg/mL (≈ 373 µM) | 500 µg/mL (≈ 745 µM) | 62.5 µg/mL (≈ 93.2 µM) |  |  | 500 µg/mL (≈ 745 µM) | 500 µg/mL (≈ 745 µM) | 125 µg/mL (≈ 186 µM) | 250 µg/mL (≈ 373 µM) | inhibition zone (IZ) [20]: 10 mm; MIC [21]: 125 µg/mL (≈ 186 µM)
10 | N#C[C@]1(C(=O)c2c[nH]c3ccccc23)C2CCCN2[C@]2(C(=O)Nc3ccc(Cl)cc32)[C@@H]1c1cn(-c2ccccc2)nc1-c1ccccc1 (some centres undefined) | 8 mm | 9 mm | 10 mm | 8 mm | 8 mm | 13 mm | 8 mm | 9 mm | 9 mm |  |  |  |  | 11 mm |  |  |  |  |  | inhibition zone (IZ) [20]: 10 mm
11 | C=CCN1C(=O)[C@]2(c3ccccc31)[C@H](c1cn(-c3ccccc3)nc1-c1ccccc1)[C@@](C#N)(C(=O)c1c[nH]c3ccccc13)CN2C | 10 mm | 11 mm | 8 mm | 11 mm |  |  | 8 mm | 10 mm | 12 mm | 500 µg/mL (≈ 795 µM) | 500 µg/mL (≈ 795 µM) | 250 µg/mL (≈ 398 µM) | 250 µg/mL (≈ 398 µM) | 11 mm | 250 µg/mL (≈ 398 µM) |  | 250 µg/mL (≈ 398 µM) | 250 µg/mL (≈ 398 µM) | 125 µg/mL (≈ 199 µM) | 
12 | CN1C(=O)[C@]2(c3ccccc31)[C@H](c1cn(-c3ccccc3)nc1-c1ccccc1)[C@@](C#N)(C(=O)c1c[nH]c3ccccc13)C1CSCN12 (some centres undefined) |  |  |  |  |  |  |  |  |  |  | 500 µg/mL (≈ 773 µM) | 500 µg/mL (≈ 773 µM) | 125 µg/mL (≈ 193 µM) |  |  |  | 250 µg/mL (≈ 387 µM) | 500 µg/mL (≈ 773 µM) | 500 µg/mL (≈ 773 µM) | MIC [21]: 500 µg/mL (≈ 773 µM)
13 | CN1C[C@](C#N)(C(=O)c2c[nH]c3ccccc23)[C@@H](c2cn(-c3ccccc3)nc2-c2ccccc2)[C@@]12C(=O)N(Cc1ccccc1)c1ccccc12 | 8 mm | 9 mm | 10 mm | 10 mm |  | 8 mm | 8 mm | 11 mm | 9 mm | 500 µg/mL (≈ 737 µM) | 250 µg/mL (≈ 368 µM) | 500 µg/mL (≈ 737 µM) | 500 µg/mL (≈ 737 µM) | 9 mm | 500 µg/mL (≈ 737 µM) | 500 µg/mL (≈ 737 µM) | 500 µg/mL (≈ 737 µM) | 500 µg/mL (≈ 737 µM) | 250 µg/mL (≈ 368 µM) | 
14 | CN1C[C@](C#N)(C(=O)c2c[nH]c3ccccc23)[C@@H](c2cn(-c3ccccc3)nc2-c2ccccc2)[C@@]12C(=O)Nc1ccc([N+](=O)[O-])cc12 | 15 mm | 19 mm | 14 mm | 15 mm | 12 mm | 13 mm | 18 mm | 17 mm | 18 mm | 125 µg/mL (≈ 197 µM) | 250 µg/mL (≈ 395 µM) | 500 µg/mL (≈ 789 µM) | 500 µg/mL (≈ 789 µM) | 8 mm | 500 µg/mL (≈ 789 µM) | 250 µg/mL (≈ 395 µM) | 250 µg/mL (≈ 395 µM) | 250 µg/mL (≈ 395 µM) | 500 µg/mL (≈ 789 µM) | inhibition zone (IZ) [20]: 20 mm; MIC [21]: 500 µg/mL (≈ 789 µM)
15 | CN1C[C@](C#N)(C(=O)c2c[nH]c3ccccc23)[C@@H](c2cn(-c3ccccc3)nc2-c2ccccc2)[C@@]12C(=O)Nc1ccc(Cl)cc12 | 8 mm | 11 mm | 11 mm | 9 mm | 8 mm | 11 mm | 12 mm | 9 mm | 10 mm |  |  |  |  | 9 mm |  |  |  |  |  | 
